Test results from US4329339A, “Anthracyclinones and derivatives thereof” (Hoffmann-La Roche Inc., priority 1980, dated 1982).
Converted amounts (≈) assume the structure as drawn. Where two headings read alike, the source gives them in different places.

Tests used:
[1] = test system: P388 leukaemia; assay: Antitumour effect against P388 leukaemia in mice; format: in vivo; conditions: 1×10^6 P388 cells i.p., CDF1 mice
Experimental: The anthracycline glycosides provided by the present invention were tested against P388 leukaemia in mice. When CDF1 mice are inoculated with 1×10^6 cells of P388 intraperitoneally and each of the antibiotics is administered intraperitoneally on days 1, 5 and 9, the survival time of the treated mice is prolonged as shown in Table 7 hereinafter.

[2] = Acute intraperitoneal toxicity in mice; conditions: mouse, in vivo, ip, judged 72 hours after a single intraperitoneal injection
[3] = test system: Escherichia coli NIHJ IFO 12734; assay: MIC, agar streak method, Escherichia coli NIHJ IFO 12734; format: cell-based; conditions: IFO12734, Heart infusion agar
From the text: (§1) | (1) Heart infusion agar

[4] = test system: Staphylococcus aureus 209P IAM 1011; assay: MIC, agar streak method, Staphylococcus aureus 209P IAM 1011; format: cell-based; conditions: Heart infusion agar
From the text: as §1

[5] = test system: Saccharomyces cerevisiae ATCC 9763; assay: MIC, agar streak method, Saccharomyces cerevisiae ATCC 9763; format: cell-based; conditions: ATCC9763, Sabouraud dextrose agar
From the text: (§2) | (2) Sabouraud dextrose agar

[6] = test system: Bacillus cereus Ro 179B; assay: MIC, agar streak method, Bacillus cereus Ro 179B; format: cell-based; conditions: RO179B, Heart infusion agar
From the text: as §1

[7] = test system: Klebsiella pneumoniae IFO 3512; assay: MIC, agar streak method, Klebsiella pneumoniae IFO 3512; format: cell-based; conditions: IFO3512, Heart infusion agar
From the text: as §1

[8] = test system: Serratia marcescens IFO 12648; assay: MIC, agar streak method, Serratia marcescens IFO 12648; format: cell-based; conditions: IFO12648, Heart infusion agar
From the text: as §1

[9] = test system: Escherichia coli K-12 IAM 1264; assay: MIC, agar streak method, Escherichia coli K-12 IAM 1264; format: cell-based; conditions: IAM1264, Heart infusion agar
From the text: as §1

[10] = test system: Pseudomonas aeruginosa IFO 12689; assay: MIC, agar streak method, Pseudomonas aeruginosa IFO 12689; format: cell-based; conditions: IFO12689, Heart infusion agar
From the text: as §1

[11] = test system: Staphylococcus epidermidis IFO 12993; assay: MIC, agar streak method, Staphylococcus epidermidis IFO 12993; format: cell-based; conditions: IFO12993, Heart infusion agar
From the text: as §1

[12] = test system: Sarcina lutea IAM 1009; assay: MIC, agar streak method, Sarcina lutea IAM 1009; format: cell-based; conditions: Micrococcus luteus, IAM1009, Heart infusion agar
From the text: as §1

[13] = test system: Mycobacterium smegmatis IFO 13167; assay: MIC, agar streak method, Mycobacterium smegmatis IFO 13167; format: cell-based; conditions: Mycolicibacterium smegmatis, IFO13167, Heart infusion agar
From the text: as §1

[14] = test system: Proteus vulgaris IAM 1025; assay: MIC, agar streak method, Proteus vulgaris IAM 1025; format: cell-based; conditions: IAM1025, Heart infusion agar
From the text: as §1

[15] = test system: Candida tropicalis ATCC 13803; assay: MIC, agar streak method, Candida tropicalis ATCC 13803; format: cell-based; conditions: ATCC13803, Sabouraud dextrose agar
From the text: as §2

[16] = test system: Bacillus subtilis IAM 1027; assay: MIC, agar streak method, Bacillus subtilis IAM 1027; format: cell-based; conditions: IAM1027, Heart infusion agar
From the text: as §1

[17] = test system: Micrococcus flavus ATCC 10240; assay: MIC, agar streak method, Micrococcus flavus ATCC 10240; format: cell-based; conditions: ATCC10240, Heart infusion agar
From the text: as §1

[18] = test system: Staphylococcus aureus 209P Stf; assay: MIC, agar streak method, Staphylococcus aureus 209P Stf; format: cell-based
[19] = test system: Candida albicans ATCC 10231; assay: MIC, agar streak method, Candida albicans ATCC 10231; format: cell-based; conditions: ATCC10231, Sabouraud dextrose agar
From the text: as §2

[20] = 1.88 mg/kg/day i.p. on days 1, 5 and 9
[21] = 3.75 mg/kg/day i.p. on days 1, 5 and 9
[22] = 7.5 mg/kg/day i.p. on days 1, 5 and 9
[23] = 15 mg/kg/day i.p. on days 1, 5 and 9
[24] = Staphylococcus aureus 209P Stf, read-out: MIC

SMILES | Mean survival (T/C, %) [1, 20] | Mean survival (T/C, %) [1, 21] | Mean survival (T/C, %) [1, 22] | Mean survival (T/C, %) [1, 23] | LD50 at 72 h [2] | MIC [3] | MIC [4] | MIC [5] | MIC [6] | MIC [7] | MIC [8] | MIC [9] | MIC [10] | MIC [11] | MIC [12] | MIC [13] | MIC [14] | MIC [15] | MIC [16] | MIC [17] | other results
COC(=O)C1c2cc3c(c(O)c2C(OC2CC(N(C)C)C(OC4CC5OC6CC(=O)C(C)OC6OC5C(C)O4)C(C)O2)CC1(C)O)C(=O)c1c(O)cccc1C3=O (stereo not shown) [Auramycin B] | 113% | 124% | 149% | 196% | ~100 mg/kg | > 100 µg/mL | 0.39 µg/mL (≈ 0.49 µM) | > 100 µg/mL | 0.2 µg/mL (≈ 0.251 µM) | > 100 µg/mL | > 100 µg/mL | > 100 µg/mL | > 100 µg/mL | 1.56 µg/mL (≈ 1.96 µM) | 0.05 µg/mL (≈ 0.0628 µM) | 3.12 µg/mL (≈ 3.92 µM) | > 100 µg/mL | > 100 µg/mL | 0.78 µg/mL (≈ 0.98 µM) | 0.05 µg/mL (≈ 0.0628 µM) | MIC [18, 24]: 0.39 µg/mL (≈ 0.49 µM); MIC [19]: > 100 µg/mL
COC(=O)C1c2cc3c(c(O)c2C(OC2CC(N(C)C)C(OC4CC(O)C(OC5CCC(=O)C(C)O5)C(C)O4)C(C)O2)CC1(C)O)C(=O)c1c(O)cccc1C3=O (stereo not shown) [Auramycin A] | 139% | 129% | 134% | 170% | ~100 mg/kg | > 100 µg/mL | 1.56 µg/mL (≈ 1.96 µM) | > 100 µg/mL | 0.39 µg/mL (≈ 0.489 µM) | > 100 µg/mL | > 100 µg/mL | > 100 µg/mL | > 100 µg/mL | 3.12 µg/mL (≈ 3.91 µM) | 0.1 µg/mL (≈ 0.125 µM) | 6.25 µg/mL (≈ 7.83 µM) | > 100 µg/mL | > 100 µg/mL | 3.12 µg/mL (≈ 3.91 µM) | 0.1 µg/mL (≈ 0.125 µM) | MIC [18, 24]: 0.78 µg/mL (≈ 0.978 µM); MIC [19]: > 100 µg/mL
COC(=O)C1c2cc3c(c(O)c2C(OC2CC(N(C)C)C(OC4CC(O)C(OC5CCC(=O)C(C)O5)C(C)O4)C(C)O2)CC1(O)CC(C)=O)C(=O)c1c(O)cccc1C3=O (stereo not shown) [Sulfurmycin A] | 124% | 134% | 144% | 165% | ~100 mg/kg | > 100 µg/mL | 0.78 µg/mL (≈ 0.929 µM) | > 100 µg/mL | 0.2 µg/mL (≈ 0.238 µM) | > 100 µg/mL | > 100 µg/mL | > 100 µg/mL | > 100 µg/mL | 3.12 µg/mL (≈ 3.71 µM) | 0.1 µg/mL (≈ 0.119 µM) | 25 µg/mL (≈ 29.8 µM) | > 100 µg/mL | > 100 µg/mL | 0.78 µg/mL (≈ 0.929 µM) | 0.2 µg/mL (≈ 0.238 µM) | MIC ([18]; Staphylococcus aureus, 209P): 0.2 µg/mL (≈ 0.238 µM); MIC [19]: > 100 µg/mL
COC(=O)C1c2cc3c(c(O)c2C(OC2CC(N(C)C)C(OC4CC5OC6CC(=O)C(C)OC6OC5C(C)O4)C(C)O2)CC1(O)CC(C)=O)C(=O)c1c(O)cccc1C3=O (stereo not shown) [Sulfurmycin B] | 124% | 124% | 155% | 165% | 25 to 50 mg/kg | > 100 µg/mL | 0.78 µg/mL (≈ 0.931 µM) | > 100 µg/mL | 0.39 µg/mL (≈ 0.465 µM) | > 100 µg/mL | > 100 µg/mL | > 100 µg/mL | > 100 µg/mL | 1.56 µg/mL (≈ 1.86 µM) | 0.1 µg/mL (≈ 0.119 µM) | 6.25 µg/mL (≈ 7.46 µM) | > 100 µg/mL | > 100 µg/mL | 0.78 µg/mL (≈ 0.931 µM) | 0.1 µg/mL (≈ 0.119 µM) | MIC ([18]; Staphylococcus aureus, 209P): 0.39 µg/mL (≈ 0.465 µM); MIC [19]: > 100 µg/mL
